Data reported in BindingDB's records for doi:10.1021/jm00105a061 (Zambeletti Research Laboratories, 1991).
Where a name gives a salt, the structure may show the parent alone.

Experiments:
[1] = Compound was evaluated for its binding affinity against Opioid receptor delta 1 subtype in guinea pig brain (minus cerebellum) using [3H]DADLE as radioligand.
[2] = Compound was evaluated for its binding affinity against opioid receptor delta subtype in guinea pig brain (minus cerebellum) using [3H]-DADLE as radioligand.

| Compound | Ki [1] [µM] | Ki [2] [µM] |
| --- | --- | --- |
| O=C(Cc1ccc(Cl)c(Cl)c1)N1CCCCC1CN1CCCC1 (stereo not drawn) | > 10 | – |
| O=C(Cc1ccc(O)cc1)N1CCCCC1CN1CCCC1 (stereo not drawn) | – | > 10 |
| CN1CCCC1C1CCCCN1C(=O)Cc1ccc(Cl)c(Cl)c1 (stereo not drawn) [(threo)2-(3,4-Dichloro-phenyl)-1-[2-(1-methyl-pyrrolidin-2-yl)-piperidin-1-yl]-ethanone(HCl)] | – | > 10 |
